What follows are compounds tested against T1, human TRPA1 (Homo sapiens, UniProt O75762) (assay: Measurement of TRPA1 antagonist activity (intracellular calcium increase, FLIPR, allylisothiocyanate stimulation)). Conditions: 293T cells transfected with human TRPA1; allylisothiocyanate 20 μM; concentration for 50% inhibitory rate; read-out: antagonism hTRPA1.
T1 construct: expressed in transfected cells; host or cells: Human embryonic kidney-derived 293T cells, transiently transfected with the pcDNA3.1/zeo(+) human TRPA1 plasmid
Format: cell-based
Source text: Measurement of TRPA1 Antagonist Activity
Human TRPA1 Expression Plasmid
As cDNA encoding human TRPA1 (GenBank accession No. […]), a commercially available product was purchased (manufactured by Kazusa DNA Research Institute, clone No.: pFN21AB7348, item No.: FHC07217). Using this as a template, full-length human TRPA1 gene was amplified using the primer sequences shown below, by reaction using DNA polymerase (manufactured by Stratagene, trade name: PfuUltra High-Fidelity DNA Polymerase).
A recognition site (underlined) of restriction enzyme HindIII was added to the 5′ side, and XbaI site (underlined) was added to the 3′ side, and GTT of the template sequence was changed to termination codon TAG (bold). The obtained double stranded DNA was enzyme-digested with HindIII and XbaI, and introduced into a multicloning site of expression plasmid pcDNA3.1/zeo(+) (manufactured by Invitrogen) to give a human TRPA1 expression plasmid.
Human embryonic kidney-derived 293T cells were cultured in Dulbecco's Modified Eagle Medium containing 10% fetal bovine serum, 10 unit penicillin, and 10 μg streptomycin, plated on a petri dish having a diameter of 10 cm at 3×10^6 cells, and cultured for 24 hr. A medium containing a reduced amount of serum (manufactured by Invitrogen, trade name: OPTI-MEM, 600 μL), a gene insertion reagent (manufactured by Mirus Bio, trade name: Mirus TransIT-293, 18 μL), and human TRPA1 expression plasmid (6 μg) were mixed, the total amount of the mixture was added to the cells on the petri dish to allow for gene transfer. The cells were recovered about 8 hr later, plated on a poly-D-lysine coated 384 well black/clear bottom plate at 7,500-12,000 cells/well, and cultured overnight.
Measurement of Intracellular Calcium Increase
The 384 well plate was recovered, and the medium was removed. A calcium-bonded fluorescent indicator (manufactured by Molecular Device, trade name: Calcium4 Assay Kit, 40 μL) dissolved in assay buffer (1×HBSS, 20 mM HEPES, pH 7.2) was added, and the cells were stained in a 37° C. incubator for 1 hr. The cells were taken out at room temperature and left standing for 15 min or more. A test substance (10 μL) was added by a 384 well type dispenser, and the mixture was incubated at room temperature for 10 min. Then, allylisothiocyanate (12.5 μL) at a final concentration of 20 μM was added by a fluorescence imaging plate reader (manufactured by Molecular Device, FLIPR), and changes in the relative fluorescence intensity were measured for 5 min.
Test Substance Preparation
The test substance was dissolved in dimethyl sulfoxide and serially diluted with an assay buffer containing 0.1% bovine serum albumin (1×HBSS, 20 mM HEPES, pH 7.2) to a 5-fold concentration of the evaluation concentration. Allylisothiocyanate, which is a known TRPA1 activator, was dissolved in dimethyl sulfoxide to 100 mM, and further diluted 5-fold (100 μM) of the final concentration, like the test substance.
Calculation of Antagonist Activity
Under the test substance-free conditions, the maximum variation range of the fluorescence intensity before and after allylisothiocyanate stimulation was defined to be 100% activity rate, and the variation range before and after buffer stimulation was defined as 0% activity rate. The activity rate on addition of the test substance was determined, and the numerical value obtained by subtracting the activity rate from 100 was defined to be an inhibitory rate. 1050, which is the concentration of the test substance necessary for reaching the 50% inhibitory rate, was calculated from the sigmoid approximate curve by a spreadsheet software Excel-Fit.

T1 sequence (O75762 whole entry): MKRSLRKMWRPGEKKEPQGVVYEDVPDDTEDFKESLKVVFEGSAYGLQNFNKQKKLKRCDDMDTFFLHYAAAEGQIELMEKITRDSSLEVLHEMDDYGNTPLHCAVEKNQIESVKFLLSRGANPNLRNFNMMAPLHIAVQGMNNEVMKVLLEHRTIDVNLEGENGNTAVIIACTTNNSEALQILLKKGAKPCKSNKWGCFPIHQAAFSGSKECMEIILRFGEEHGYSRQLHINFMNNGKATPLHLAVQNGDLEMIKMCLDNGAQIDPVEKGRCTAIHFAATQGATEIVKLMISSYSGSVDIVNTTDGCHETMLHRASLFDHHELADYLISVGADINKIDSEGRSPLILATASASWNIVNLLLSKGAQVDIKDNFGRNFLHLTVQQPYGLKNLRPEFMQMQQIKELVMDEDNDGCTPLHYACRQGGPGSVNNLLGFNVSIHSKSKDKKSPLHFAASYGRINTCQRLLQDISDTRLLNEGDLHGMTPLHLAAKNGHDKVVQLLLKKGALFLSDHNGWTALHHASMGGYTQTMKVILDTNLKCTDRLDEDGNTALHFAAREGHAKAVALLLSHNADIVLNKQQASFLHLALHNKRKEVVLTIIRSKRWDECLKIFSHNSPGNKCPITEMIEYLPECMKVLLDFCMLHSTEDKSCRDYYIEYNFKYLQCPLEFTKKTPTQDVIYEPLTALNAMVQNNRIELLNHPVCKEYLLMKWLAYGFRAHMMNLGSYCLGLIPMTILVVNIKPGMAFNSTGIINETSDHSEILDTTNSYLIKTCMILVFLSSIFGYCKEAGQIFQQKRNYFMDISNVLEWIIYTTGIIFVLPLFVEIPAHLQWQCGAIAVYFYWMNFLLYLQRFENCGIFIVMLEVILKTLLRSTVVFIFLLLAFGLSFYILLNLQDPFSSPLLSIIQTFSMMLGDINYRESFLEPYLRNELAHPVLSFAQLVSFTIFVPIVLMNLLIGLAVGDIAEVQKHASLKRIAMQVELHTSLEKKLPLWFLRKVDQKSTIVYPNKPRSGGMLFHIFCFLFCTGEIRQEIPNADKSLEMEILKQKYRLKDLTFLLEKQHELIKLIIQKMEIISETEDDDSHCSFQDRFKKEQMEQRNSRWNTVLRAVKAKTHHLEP

IC50 | Compound
220 nM | O=C(NCc1ccc(Oc2ccccc2)cc1)[C@@H]1CCCN1S(=O)(=O)c1ccc(Cl)s1 [Example 1, (2S)-1-(5-chlorothiophene-2-sulfonyl)-N-[(4-phenoxyphenyl)methyl]pyrrolidine-2-carboxamide]
210 nM | O=C(NCc1ccc(Oc2ccc(C(F)(F)F)cc2)cc1)[C@@H]1CCCN1S(=O)(=O)c1ccc(Cl)s1 [Example 2]
88 nM | O=C(NCc1ccc(Oc2ccc(OC(F)(F)F)cc2)cc1)[C@@H]1CCCN1S(=O)(=O)c1ccc(Cl)s1 [Example 3]
100 nM | O=C(NCc1ccc(Oc2ccc(Cl)cc2)cc1)[C@@H]1CCCN1S(=O)(=O)c1ccc(Cl)s1 [Example 4, (2S)-N-{[4-(4-chlorophenoxy)phenyl]methyl}-1-(5-chlorothiophene-2-sulfonyl)pyrrolidine-2-carboxamide]
130 nM | O=C(NCc1ccc(Oc2ccc(F)cc2)cc1)[C@@H]1CCCN1S(=O)(=O)c1ccc(Cl)s1 [Example 5, (2S)-1-(5-chlorothiophene-2-sulfonyl)-N-{[4-(4-fluorophenoxy)phenyl]methyl)pyrrolidine-2-carboxamide]
100 nM | O=C(NCc1ccc(Oc2cccc(C(F)(F)F)c2)cc1)[C@@H]1CCCN1S(=O)(=O)c1ccc(Cl)s1 [Example 6, (2S)-1-(5-chlorothiophene-2-sulfonyl)-N-({4-[3-(trifluoromethyl)phenoxy]phenyl}methyl)pyrrolidine-2-carboxamide]
81 nM | O=C(NCc1ccc(Oc2cccc(OC(F)(F)F)c2)cc1)[C@@H]1CCCN1S(=O)(=O)c1ccc(Cl)s1 [Example 7, (2S)-1-(5-chlorothiophene-2-sulfonyl)-N-({4-[3-(trifluoromethoxy)phenoxy]phenyl}methyl)pyrrolidine-2-carboxamide]
100 nM | O=C(NCc1ccc(Oc2cccc(Cl)c2)cc1)[C@@H]1CCCN1S(=O)(=O)c1ccc(Cl)s1 [Example 8, (2S)-N-{[4-(3-chlorophenoxy)phenyl]methyl}-1-(5-chlorothiophene-2-sulfonyl)pyrrolidine-2-carboxamide]
170 nM | O=C(NCc1ccc(Oc2cccc(F)c2)cc1)[C@@H]1CCCN1S(=O)(=O)c1ccc(Cl)s1 [Example 9, (2S)-1-(5-chlorothiophene-2-sulfonyl)-N-{[4-(3-fluoro-phenoxy)phenyl]methyl}pyrrolidine-2-carboxamide]
450 nM | O=C(NCc1ccc(Oc2ccccc2C(F)(F)F)cc1)[C@@H]1CCCN1S(=O)(=O)c1ccc(Cl)s1 [Example 10, (2S)-1-(5-chlorothiophene-2-sulfonyl)-N-({4-[2-(trifluoro-methyl)phenoxy]phenyl}methyl)pyrrolidine-2-carboxamide]
200 nM | O=C(NCc1ccc(Oc2ccc(F)c(Cl)c2)cc1)[C@@H]1CCCN1S(=O)(=O)c1ccc(Cl)s1 [Example 11, (2S)-N-{[4-(3-chloro-4-fluoro-phenoxy)phenyl]methyl}-1-(5-chlorothiophene-2-sulfonyl)pyrrolidine-2-carboxamide]
87 nM | O=C(NCc1ccc(Oc2ccnc(C(F)(F)F)c2)cc1)[C@@H]1CCCN1S(=O)(=O)c1ccc(Cl)s1 [Example 12, (2S)-1-(5-chlorothiophene-2-sulfonyl)-N-((4-{[2-(trifluoro-methyl)-4-pyridyl]oxy}phenyl)methyl)pyrrolidine-2-carboxamide]
180 nM | O=C(NCc1ccc(Oc2ccnc(Cl)c2)cc1)[C@@H]1CCCN1S(=O)(=O)c1ccc(Cl)s1 [Example 13, (2S)-N-({4-[(2-chloro-4-pyridyl)oxy]phenyl}methyl)-1-(5-chlorothiophene-2-sulfonyl)pyrrolidine-2-carboxamide]
240 nM | O=C(NCc1cccc(Oc2ccccc2)c1)[C@@H]1CCCN1S(=O)(=O)c1ccc(Cl)s1 [Example 14, (2S)-1-(5-chlorothiophene-2-sulfonyl)-N-[(3-phenoxyphenyl)methyl]pyrrolidine-2-carboxamide]
15 nM | O=C(NCc1cccc(Oc2ccc(C(F)(F)F)cc2)c1)[C@@H]1CCCN1S(=O)(=O)c1ccc(Cl)s1 [Example 15, (2S)-1-(5-chlorothiophene-2-sulfonyl)-N-({3-[4-(trifluoro-methyl)phenoxy]phenyl}methyl)pyrrolidine-2-carboxamide]
100 nM | O=C(NCc1cccc(Oc2ccc(OC(F)(F)F)cc2)c1)[C@@H]1CCCN1S(=O)(=O)c1ccc(Cl)s1 [Example 16, (2S)-1-(5-chlorothiophene-2-sulfonyl)-N-({3-[4-(trifluoro-methoxy)phenoxy]phenyl}methyl)pyrrolidine-2-carboxamide]
120 nM | O=C(NCc1cccc(Oc2ccc(Cl)cc2)c1)[C@@H]1CCCN1S(=O)(=O)c1ccc(Cl)s1 [Example 17, (2S)-N-{[3-(4-chlorophenoxy)phenyl]methyl}-1-(5-chlorothiophene-2-sulfonyl)pyrrolidine-2-carboxamide]
130 nM | O=C(NCc1cccc(Oc2ccc(F)cc2)c1)[C@@H]1CCCN1S(=O)(=O)c1ccc(Cl)s1 [Example 18, (2S)-1-(5-chlorothiophene-2-sulfonyl)-N-{[3-(4-fluoro-phenoxy)phenyl]methyl}pyrrolidine-2-carboxamide]
80 nM | O=C(NCc1cccc(Oc2cccc(C(F)(F)F)c2)c1)[C@@H]1CCCN1S(=O)(=O)c1ccc(Cl)s1 [Example 19, (2S)-1-(5-chlorothiophine-2-sulfonyl)-N-({3-[3-(trifluoro-methyl)phenoxy]phenyl}methyl)pyrrolidine-2-carboxamide]
71 nM | O=C(NCc1cccc(Oc2cccc(OC(F)(F)F)c2)c1)[C@@H]1CCCN1S(=O)(=O)c1ccc(Cl)s1 [Example 20, (2S)-1-(5-chlorothiophene-2-sulfonyl)-N-({3-[3-(trifluoro-methoxy)phenoxy]phenyl}methyl)pyrrolidine-2-carboxamide]
45 nM | O=C(NCc1cccc(Oc2cccc(Cl)c2)c1)[C@@H]1CCCN1S(=O)(=O)c1ccc(Cl)s1 [Example 21, (2S)-N-{[3-(3-chlorophenoxy)phenyl]methyl}-1-(5-chloro-thiophene-2-sulfonyl)pyrrolidine-2-carboxamide]
56 nM | O=C(NCc1cccc(Oc2cccc(F)c2)c1)[C@@H]1CCCN1S(=O)(=O)c1ccc(Cl)s1 [Example 22, (2S)-1-(5-chlorothiophene-2-sulfonyl)-N-{[3-(3-fluoro-phenoxy)phenyl]methyl}pyrrolidine-2-carboxamide]
380 nM | O=C(NCc1cccc(Oc2ccccc2C(F)(F)F)c1)[C@@H]1CCCN1S(=O)(=O)c1ccc(Cl)s1 [Example 23, (2S)-1-(5-chlorothiophene-2-sulfonyl)-N-({3-[2-(trifluoro-methyl)phenoxy]phenyl}methyl)pyrrolidine-2-carboxamide]

Same assay, conditions: allylisothiocyanate 20 μM stimulation, FLIPR calcium assay; read-out: antagonism hTRPA1

IC50 | Compound
190 nM | CC(Oc1cccc(CNC(=O)[C@@H]2CCCN2S(=O)(=O)c2ccc(F)cc2)c1)c1ccccc1 (stereo in doubt) [Example 143, (2S)-1-(4-fluorophenyl)sulfonyl-N-[[3-[(1R)-1-phenylethoxy]phenyl]methyl]pyrrolidine-2-carboxamide]
65 nM | CC(Oc1cccc(CNC(=O)[C@@H]2CCCN2S(=O)(=O)c2ccc(F)cc2)c1)c1ccc(Cl)cc1 (stereo in doubt) [Example 145, (2S)-N-[[3-[(1R)-1-(4-chlorophenyl)ethoxy]phenyl]methyl]-1-(4-fluorophenyl)sulfonyl-pyrrolidine-2-carboxamide]
280 nM | O=C(NCc1cccc(Oc2ccc(C(F)(F)F)cc2)c1)[C@@H]1CC(F)CN1S(=O)(=O)c1ccc(F)cc1 (stereo in doubt) [Example 158, (2S,4R)-4-fluoro-1-(4-fluorophenyl)sulfonyl-N-[[3-[4-(trifluoromethyl)phenoxy]phenyl]methyl]pyrrolidine-2-carboxamide]
